Results published in patent US5278300A, “4,6-o-hydroxyphosphoryl-glucosamine derivatives” (priority 1990, dated 1994).
Read-outs that look alike come from different tables or passages of the source.

Tests used:
TNF = assay: TNF-producing activity; type: in vivo, ICR mice; settings: 10 μg/mice i.v., serum at 90 minutes, Corynebacterium parvum-primed, L929 cytotoxicity assay
Method: TNF-producing activity was evaluated utilizing the following experimental system.
The first stimulating agent, 5% Corynebacterium parvum suspension (0.2 ml physiological saline solution), was intravenously administered to ICR mice (female, 6-7 week-aged). Nine days later, the second stimulating agent, the compound of the present invention, was intravenously administered to the same mice at 10 μg/mice. In 90 minutes, 0.5-1 ml of blood was taken from the retro orbital plexus. The obtained blood was allowed to clot at room temperature for five to six hours, and centrifuged at 7200×g for five minutes to separate the serum. The obtained serum was incubated at 56° C. for 30 minutes for inactivation before use in the following experiment.
TNF activity in the serum was measured via a cytotoxicity assay employing L929 cells. […] After 48 hours incubation at 37° C., the viable cells were fixed with methanol. These cells were then stained with 0.2% crystal violet, and the dye was extracted with 1% SDS (sodium dodecyl sulphate). Next, the absorbance at 550 nm was measured. Finally, the cytotoxicity ratio (%) was calculated according to the following formula, and the reciprocal of the dilution of the serum showing 50% cytotoxicity was determined for the TNF titer in the serum (U/ml).
[OD550 (medium alone) - OD550 (serum obtained by
administering compounds of the invention)] ×

[1] = Lethal toxicity in galactosamine-sensitized mice; type: in vivo, C57BL mice; settings: galactosamine-sensitized mice; intravenous; D-galactosamine/HCl 10 mg/mouse intraperitoneally; observed to seventh day; read-out: LD50 (galactosamine load)
Method: (§1) Lethal toxicity in galactosamine-sensitized mice was evaluated by utilizing the following experimental system [see J. Biochem., 98, 395-406. (1985)].
(§2) To C57BL mice (male, 7-weeks old), 10 mg/mouse of D-galactosamine/HCl was intraperitoneally administered. Immediately after that, the compound of this invention was intravenously administered. After these administrations, the general condition of the mice were observed every one hour for seven hours, and every day from the following day to the seventh day.

[2] = system: colony stimulating factor (CSF); assay: Colony stimulating factor (CSF)-inducing activity; type: in vivo, C57BL mice; settings: 5 μg caudal vein, serum after six hours, colonies after seven days
Method: By utilizing the following experimental protocol, in vivo colony stimulating factor (CSF) inducing activity of the compounds according to the present invention was evaluated [see Immunology, 21, 427-436. (1971)].
5 μg of the present compounds according to the present invention were administered to the caudal vein of C57BL mice (male, 8-10-weeks old). After six hours, the blood was sampled from the plexus venous orbitalis of said mice. This blood was allowed to stand at 4° C. for two hours for sufficient coagulation, and then centrifuged at 1500×g. The resultant supernatant solution was collected for use as a CSF-containing serum sample.
Separately, from the femora of mice which were the same series as the mice used for sampling the serum, the bone marrow cells were sampled. Specifically, both ends of the femora isolated in an aseptic manner were cut, and an injection needle was inserted into one end to aspirate the bone marrow cells into a culture solution (DMEM). The obtained cell suspension was sufficiently stirred, washed with the culture solution several times, and suspended in the culture solution again.
Next, the cell culture prepared as described was adjusted to a final concentration of 10^5 cells/ml by utilizing a medium (DMEM) containing 0.3% agar, 25% horse serum, and 50 μM 2-mercaptoethanol. To this solution, 0.1 ml of said serum sample which had been diluted to 1/3 with said DMEM medium was added, and the obtained solution was transferred to a culture plate of 35 mm diameter. Then, the resultant culture solution was cultured under 7% CO2 at 37° C. for seven days to form colonies. Colonies as containing at least 20 unseparated cells were counted, and the numbers thus obtained were taken as indicating the CSF inducing activity of the compounds according to the present invention.

neutrophils = assay: O2^- production stimulating activity in neutrophils; type: cell-based, C3H/HeN mice; settings: 10 μg/ml, 37° C., 60 minutes, FMLP 0.1 μM; for activation at 10 µg/mL: Mus musculus, Neutrophil, 1 h, read-out: Stimulation (%), O2^- production stimulating activity
Method: O2^- - production stimulating activity in neutrophils was evaluated utilizing the following experimental system [see J. Exp. Med., 160, 1656-1671. (1984)]. To the peritoneal cavity of C3H/HeN mice (male, 8-9 weeks old), physiological saline containing 0.2% (w/v) casein was administered. Three hours later, peritoneal exudate cells (90% or more of which are neutrophils) were collected. These cells (1.7×10^6 cells/ml/tube) were incubated in the presence of the compound (10 μg/ml) according to the present invention at 37° C. for 60 minutes. After addition of 80 μM of cytochrome C and 0.1 μM of formyl-methionyl-leucylphenylalanine (FMLP), the mixture was incubated in the presence of or in the absence of superoxide dismutase (SOD) at 37° C. for 10 minutes. Then, SOD-inhibitable cytochrome C reduction was estimated from the difference between the absorbances at 550 nm and 541.7 nm, and from the molar absorption coefficient (16.5×10^3).O2^- production-stimulating activity in terms of Stimulation % was calculated according to the following formula: [formula]

spleen cells = assay: Mitogen activity (3H-thymidine incorporation in spleen cells); type: cell-based, C3H/HeN mice; settings: 48 hours culture, given concentration
Method: The mitogen activity of the compounds according to the present invention was evaluated by utilizing the following experimental system [see Eur. J. Immunol., 14, 109-114. (1984)].
The spleens of C3H/HeN mice (males, 6-10-weeks old) were isolated in an aseptic manner. The spleen tissue was loosened in Dulbecco's modified Eagle medium (DMEM) and then subjected to a stainless mesh in order to filter the spleen cells. Next, erythrocytes contained in the collected cells were hemolyzed, and the obtained cells were suspended in RPMI 1640 medium containing 5% FBS for subsequent use.
Evaluation of mitogenic activity of the compounds according to the present invention was conducted by measuring the amount of ^3 H-thymidine incorporated into the cells during culturing of the cells which were treated with the compounds according to the present invention. First, the spleen cells were transferred to a 96-well plate at 5×10^5 cells/well (100 μl). To each well, the compound according to the present invention at a given concentration (100 μl) was added, and the obtained solution in each well was cultured under 5% CO2 at 37° C. for 48 hours. After that, ^3 H-thymidine was added at 1 μCi/well (50 μl), followed by culturing for four hours. The obtained cells were washed with phosphate buffered saline (PBS), and the amount of ^3 H-thymidine incorporated into the cells (the amount of radioactivity) was determined using a liquid scintillation counter. The result was shown by calculating the following Stimulation Index: [formula]

[3] = system: galactosamine-sensitized mice; assay: Lethal toxicity in galactosamine-sensitized mice; type: in vivo, C57BL mice; settings: intravenous; D-galactosamine/HCl 10 mg/mouse intraperitoneally; observed to seventh day; 10080 min
Method: as §1, §2

| Compound | The Amount of TNF in the Serum (TNF; Experiment 1) | The Amount of TNF in the Serum (TNF; Experiment 2) | LD50 at 168 h [1] | The Number of Colony Formed/The number of Bone Marrow Cells (10^5) ([2]; Experiment 1) | The Number of Colony Formed/The number of Bone Marrow Cells (10^5) ([2]; Experiment 2) | Stimulation (%), O2^- production stimulating activity (neutrophils; Experiment 2) | activation at 10 µg/mL (neutrophils; Experiment 1) | Stimulation Index (spleen cells; Experiment 1) | Stimulation Index (spleen cells; Experiment 2) | activation at 10 µg/mL (neutrophils; Experiment 2) | LD50 (galactosamine load) [3] |
| --- | --- | --- | --- | --- | --- | --- | --- | --- | --- | --- | --- |
| CCCCCCCCCCCCCC(=O)O[C@H](CCCCCCCCCCC)CC(=O)O[C@H]1[C@H](OP(=O)(O)O)[C@@H](CO)OC(O)[C@@H]1NC(=O)C[C@H](O)CCCCCCCCCCC (stereo partly drawn) [Control, 2-deoxy-2[(3R)-3-hydroxytetradecanamide]-4-O-phosphono-3-O-[(3R)-3-tetradecanoyloxytetradecanoyl]-D-glucopyranose] | 158000 U/ml | 80000 U/ml | 0.003 mg/kg | 89 Colony Formed/10^5 Bone Marrow | 53 Colony Formed/10^5 Bone Marrow | 60% | 60% | 15.8 | 8.4 |  |  |
| CCCCCCCCCCCCCC(=O)O[C@H](CCCCCCCCCCCC)C(=O)O[C@H]1[C@@H]2OP(=O)(O)OC[C@H]2OC[C@@H]1NC(=O)C[C@H](O)CCCCCCCCCCC [Example 1, 1,5-Anhydro-2-deoxy-4,6-O-hydroxyphosphoryl-2-{(3R)-3-hydroxytetradecanamido}-3-O-{(2R)-2-tetradecanoyloxytetradecanoyl}-D-glucitol] | 133000 U/ml |  | 0.0313 mg/kg | 153 Colony Formed/10^5 Bone Marrow |  |  | 55% | 32.1 |  |  |  |
| CCCCCCCCCCCCCCC(OC(=O)CCCCCCCCCCC)C(=O)O[C@H]1[C@@H]2OP(=O)(O)OC[C@H]2OC[C@@H]1NC(=O)C[C@H](O)CCCCCCCCC (stereo partly drawn) [Example 2, 1,5-Anhydro-2-deoxy-3-O-{(2RS)-2-dodecanoyloxyhexadecanoyl}-2-{(3R)-3-hydroxydodecanamido}-4,6-O-hydroxyphosphoryl-D-glucitol] |  | 102000 U/ml |  |  |  |  |  |  |  |  |  |
| CCCCCCCCCCCCCCC(CCCCCCCCCCCC)C(=O)O[C@H]1[C@@H]2OP(=O)(O)OC[C@H]2OC[C@@H]1NC(=O)C[C@H](O)CCCCCCCCCCC (stereo partly drawn) [Example 4, 1,5-Anhydro-2-deoxy-3-O-{(2RS)-2-dodecylhexadecanoyl}-4,6-O-hydroxyphosphoryl-2-{(3R)-3-hydroxytetradecanamido}-D-glucitol] |  |  | 0.0711 mg/kg |  | 66 Colony Formed/10^5 Bone Marrow |  |  |  | 20.7 | 55% |  |
| CCCCCCCCCCCCCC(=O)O[C@H](CCCCCCCCCCC)CC(=O)O[C@@H]1[C@@H](NC(=O)C[C@@H](CCCCCCCCCCC)OC(=O)CCCCCCCCCCC)[C@H](OC[C@H]2O[C@H](OP(=O)(O)O)[C@H](NC(=O)C[C@H](O)CCCCCCCCCCC)[C@@H](OC(=O)C[C@H](O)CCCCCCCCCCC)[C@@H]2O)O[C@H](CO)[C@H]1OP(=O)(O)O [Lipid A] |  |  |  |  |  |  |  |  |  |  | 0.0003 mg/kg |
